Source: patent US20020183518A1, “Modulators of proteins with phosphotyrosine recognition units” (ONTOGEN CORPORATION, priority 1995, published 2002)

Experiments:
Assay type in all cases: biochemical
PTPα = PTPα (Homo sapiens, UniProt P18433); assay: In vitro PTPase inhibition assay (pNPP, colorimetric), PTPα; details: Table 8; 100 μM compound
Protocol: (§1) The ability of the compounds of the present invention, such as the cinnamic 4 acid derivative compounds of Example 2, to inhibit the PTPase activity of PTP-1B, CD45, PTP-1C, and PTPα was determined using modifications of the PTP-1B and CD45 activity assays described in Examples 3 and 4.
(§2) First, 0.001 mmol of the cinnamic acid derivative (or other PTPase inhibitor compound) was dissolved in 100 ul of DMSO to create a 10 mM stock solution. The 10 mM stock solution was used to add varying concentrations (100 uM, 133 uM, 10 uM, 3 uM, 1 uM, 0.3 uM, 0.1 uM, 0.03 uM, 0.01 uM or 0.003 uM) of the inhibitor compound to a series of otherwise identical PTPase activity assay reactions (100 ul final volume in microtiter wells). Thus, each 100 ul reaction contained 10 ul PTPase enzyme stock solution (final phosphatase concentration of approximately 20 ng/well), 70 ul activity assay buffer, 10 ul pNPP stock solution (final pNPP concentration of 0.9 mM for PTP-1B assay, 0.93 mM for CD45 assay, 0.5 mM for PTPα assay, and 8 mM for PTP-1C assay), and 10 ul of the diluted inhibitor compound in DMSO. Assay buffers contained: for CD45 and PTP-1B assays, 100 mM sodium acetate at pH 6.0, 1 mM EDTA, 0.1% Triton X-100, and 15 mM bME; for PTP-1C assays, 100 mM sodium acetate at pH 5.5, 0.1% BSA, and 15 mM bME; for PTPα assays, 100 mM sodium acetate at pH 5.25, 0.1% BSA, and 15 mM bME. Purified phosphatase was added to the reaction mixtures to begin the reactions; the reactions were incubated at 37° C. for 60 min. (for PTP-1B and CD45 assays) or at 27° C. for 60 min. (for PTP-1C and PTPα assays), stopped, and colorimetrically analyzed as described above. As positive and negative controls, reactions were performed containing 10 ul DMSO with no inhibitor compound or containing the known PTPase inhibitors vanadate (final concentration 0.5 mM; for PTP-1B and CD45 assays) or ammonium molybdate (final concentration 1 mM; for PTP-1C and PTPα assays) substituted for the inhibitor compound of the invention.
(§3) The concentration of inhibitor compound required to inhibit 50% of the PTPase activity (IC50) was determined as follows. First, absorbance readings from the negative control reactions were treated as a baseline and subtracted from the absorbance readings of the experimental reactions. Then, for each reaction, a percent inhibition was calculated using the following formula: […]
(§4) The ability of the compounds of the present invention, such as the cinnamic acid derivative compounds of Example 2, to inhibit the PTPase activity of PTP-1B, CD45, PTP-1C, and PTPα was determined using modifications of the PTP-1B and CD45 activity assays described in Examples 3 and 4.
as §2, with “uM, 33” for “uM, 133”, “EDTA, 0. 1%” for “EDTA, 0.1%”, “at 27 C” for “at 27° C.”, “min.” for “min. (for PTP-1C and PTPα assays), stopped, and colorimetrically analyzed as described above. As positive and negative controls, reactions were performed containing 10 ul DMSO with no inhibitor compound or containing the known PTPase inhibitors vanadate (final concentration 0.5 mM; for PTP-1B and CD45 assays) or ammonium molybdate (final concentration 1 mM; for PTP-1C and PTPα assays) substituted for the inhibitor compound of the invention.”

PTP-1C = PTP-1C (Homo sapiens, UniProt P29350); assay: In vitro PTPase inhibition assay (pNPP, colorimetric), PTP-1C; details: Table 8; 100 μM compound
Chain of PTP-1C (P29350 whole entry, species assumed): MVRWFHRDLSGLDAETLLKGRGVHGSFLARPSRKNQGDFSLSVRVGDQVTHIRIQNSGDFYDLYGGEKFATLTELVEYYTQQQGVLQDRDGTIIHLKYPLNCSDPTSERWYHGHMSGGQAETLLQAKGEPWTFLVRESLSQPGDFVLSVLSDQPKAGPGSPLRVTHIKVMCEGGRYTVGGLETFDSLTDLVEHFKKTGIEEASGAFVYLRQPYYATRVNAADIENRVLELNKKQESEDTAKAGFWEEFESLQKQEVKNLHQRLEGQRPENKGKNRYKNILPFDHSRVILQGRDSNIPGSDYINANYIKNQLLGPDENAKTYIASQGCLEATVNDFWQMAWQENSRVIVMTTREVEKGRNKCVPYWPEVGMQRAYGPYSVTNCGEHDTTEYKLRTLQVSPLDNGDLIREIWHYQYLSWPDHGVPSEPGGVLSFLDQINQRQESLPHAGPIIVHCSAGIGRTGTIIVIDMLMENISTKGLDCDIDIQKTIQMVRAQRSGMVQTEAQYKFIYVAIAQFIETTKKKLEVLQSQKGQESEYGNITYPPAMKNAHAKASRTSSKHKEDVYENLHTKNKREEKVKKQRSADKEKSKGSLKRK
Protocol: as §1, §2, §3, §4
as §2, with “uM, 33” for “uM, 133”, “EDTA, 0. 1%” for “EDTA, 0.1%”, “at 27 C” for “at 27° C.”, “min.” for “min. (for PTP-1C and PTPα assays), stopped, and colorimetrically analyzed as described above. As positive and negative controls, reactions were performed containing 10 ul DMSO with no inhibitor compound or containing the known PTPase inhibitors vanadate (final concentration 0.5 mM; for PTP-1B and CD45 assays) or ammonium molybdate (final concentration 1 mM; for PTP-1C and PTPα assays) substituted for the inhibitor compound of the invention.”

PTP-1B = biological target: T1, PTP-1B (Homo sapiens, UniProt P18031); assay: In vitro PTPase inhibition assay (pNPP, colorimetric), PTP-1B; details: Table 8; 1 μM compound
T1 construct: known to encode a 321 amino acid fragment containing the PTP-1B catalytic domain and having PTPase activity; made in house; host or cells: E. coli DH5α, plasmid pGEX-3X-PTP-1B
T1 sequence (P18031 3-277 limits assumed): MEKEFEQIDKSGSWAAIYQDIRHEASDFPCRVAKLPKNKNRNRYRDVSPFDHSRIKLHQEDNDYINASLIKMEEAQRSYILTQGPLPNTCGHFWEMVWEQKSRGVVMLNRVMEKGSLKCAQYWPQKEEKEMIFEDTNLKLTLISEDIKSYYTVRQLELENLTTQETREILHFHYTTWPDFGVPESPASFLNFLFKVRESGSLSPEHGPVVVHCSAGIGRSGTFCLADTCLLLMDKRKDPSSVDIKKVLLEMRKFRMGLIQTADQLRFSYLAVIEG
Protocol: PTP-1B enzymatic activity of samples was assayed in microtiter plates as follows. The protein concentration of the PTP-1B enzyme preparation was determined using the Bio-Rad Protein Assay kit (Bio-Rad, Hercules Calif.). […] Reactions were mixed gently and incubated at 37° C. for 60 minutes. Enzymatic cleavage of phosphate from pNPP (a tyrosine phosphate analog) is marked by a colorimetric change in this substrate. See, e.g., Imbert et al., Biochem J., 297:163-173 (1994); Ghosh and Miller, Biochem. Biophys. Res. […] Zanke et al., Eur. J. […] To determine the enzymatic activity, absorbance readings of the reactions were measured at 405 nm using a Molecular Devices Thermomax Plate Reader (Menlo Park Calif.). […] Purified phosphatase was added to the reaction mixtures to begin the reactions; the reactions were incubated at 37° C. for 60 min. […] (for PTP-1C and PTPα assays), stopped, and colorimetrically analyzed as described above. […] First, absorbance readings from the negative control reactions were treated as a baseline and subtracted from the absorbance readings of the experimental reactions. Then, for each reaction, a percent inhibition was calculated using the following formula: […] For each inhibitor compound tested, an IC50 concentration was calculated from a best-fit computer analysis of the calculated percent inhibition for the various dilutions of the compound. PTP-1B enzymatic activity of samples was assayed in microtiter plates as follows. The protein concentration of the PTP-1B enzyme preparation was determined using the Bio-Rad Protein Assay kit (Bio-Rad, Hercules Calif.). […] Reactions were mixed gently and incubated at 37° C. for 60 minutes. Enzymatic cleavage of phosphate from pNPP (a tyrosine phosphate analog) is marked by a colorimetric change in this substrate. See, e.g., Imbert et al., Biochem J., 297:163-173 (1994); Ghosh and Miller, Biochem. Biophys. Res. […] Zanke et al., Eur. […] To determine the enzymatic activity, absorbance readings of the reactions were measured at 405 nm using a Molecular Devices Thermomax Plate Reader (Menlo Park Calif.). […] Purified phosphatase was added to the reaction mixtures to begin the reactions; the reactions were incubated at 37° C. for 60 min. […] (for PTP-1C and PTPα assays), stopped, and calorimetrically analyzed as described above. […] First, absorbance readings from the negative control reactions were treated as a baseline and subtracted from the absorbance readings of the experimental reactions. Then, for each reaction, a percent inhibition was calculated using the following formula: […] For each inhibitor compound tested, an IC50 concentration was calculated from a best-fit computer analysis of the calculated percent inhibition for the various dilutions of the compound.

Chain of PTPα (P18433 20-802): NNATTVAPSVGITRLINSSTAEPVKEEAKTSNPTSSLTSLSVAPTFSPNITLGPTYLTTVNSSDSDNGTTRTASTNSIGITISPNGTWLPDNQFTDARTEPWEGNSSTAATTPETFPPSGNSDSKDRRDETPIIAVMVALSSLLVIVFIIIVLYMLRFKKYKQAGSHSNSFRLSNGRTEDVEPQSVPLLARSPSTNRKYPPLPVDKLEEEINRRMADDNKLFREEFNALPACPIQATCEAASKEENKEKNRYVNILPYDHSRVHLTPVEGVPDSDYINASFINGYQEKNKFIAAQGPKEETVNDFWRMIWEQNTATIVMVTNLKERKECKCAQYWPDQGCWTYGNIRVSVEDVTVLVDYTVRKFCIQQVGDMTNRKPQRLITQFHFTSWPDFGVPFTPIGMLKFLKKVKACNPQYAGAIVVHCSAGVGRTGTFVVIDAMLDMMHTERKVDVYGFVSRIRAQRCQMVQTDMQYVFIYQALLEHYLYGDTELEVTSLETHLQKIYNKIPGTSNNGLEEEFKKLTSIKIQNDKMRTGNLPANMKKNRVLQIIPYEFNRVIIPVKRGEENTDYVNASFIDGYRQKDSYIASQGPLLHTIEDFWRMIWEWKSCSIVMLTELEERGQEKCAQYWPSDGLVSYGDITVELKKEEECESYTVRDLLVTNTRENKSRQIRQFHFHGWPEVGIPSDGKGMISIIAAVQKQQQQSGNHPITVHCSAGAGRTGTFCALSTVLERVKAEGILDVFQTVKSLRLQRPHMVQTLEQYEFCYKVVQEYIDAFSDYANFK

O=C(O)/C=C/c1ccc(C(OC(=O)CCC2CCCC2)C(=O)NCCCCCC(=O)O)cc1 (racemic) [Compound 50]
% inhibition of PTPα at 100 μM (PTPα): 37% | % inhibition of PTP1C at 100 μM (PTP-1C): 25% | % inhibition of PTP1B at 1 μM (PTP-1B): 50%

CCCCCCCCCC(OC(=O)c1ccc(/C=C/C(=O)O)cc1)C(=O)NCCC(=O)O (racemic) [Compound 40]
% inhibition of PTPα at 100 μM (PTPα): 82% | % inhibition of PTP1C at 100 μM (PTP-1C): 62% | % inhibition of PTP1B at 1 μM (PTP-1B): 88%

O=C(O)/C=C/c1ccc(C(OC(=O)c2ccc([N+](=O)[O-])cc2)C(=O)NCCC(=O)O)cc1 (racemic) [Compound 44]
% inhibition of PTPα at 100 μM (PTPα): 87% | % inhibition of PTP1C at 100 μM (PTP-1C): 86% | % inhibition of PTP1B at 1 μM (PTP-1B): 79%

CCCCCCCCCC(OC(=O)c1ccc(/C=C/C(=O)O)cc1)C(=O)NCCCCCC(=O)O (racemic) [Compound 41]
% inhibition of PTPα at 100 μM (PTPα): 20% | % inhibition of PTP1C at 100 μM (PTP-1C): 17% | % inhibition of PTP1B at 1 μM (PTP-1B): 39%

CCCC(CCC)C(=O)OC(C(=O)NCCCCCC(=O)O)c1ccc(/C=C/C(=O)O)cc1 (racemic) [Compound 48]
% inhibition of PTPα at 100 μM (PTPα): 3% | % inhibition of PTP1C at 100 μM (PTP-1C): 33% | % inhibition of PTP1B at 1 μM (PTP-1B): 69%

COc1ccc(C(=O)OC(C(=O)NCCC(=O)O)c2ccc(/C=C/C(=O)O)cc2)cc1 (racemic) [Compound 42]
% inhibition of PTPα at 100 μM (PTPα): 92% | % inhibition of PTP1C at 100 μM (PTP-1C): 88% | % inhibition of PTP1B at 1 μM (PTP-1B): 84%

O=C(O)/C=C/c1ccc(C(=O)OC(C(=O)NCCCCCC(=O)O)c2ccc(Br)cc2)cc1 (racemic) [Compound 37]
% inhibition of PTPα at 100 μM (PTPα): 63% | % inhibition of PTP1C at 100 μM (PTP-1C): 59% | % inhibition of PTP1B at 1 μM (PTP-1B): 85%

O=C(O)/C=C/c1ccc(C(=O)OC(C(=O)NCCC(=O)O)c2ccc(Br)cc2)cc1 (racemic) [Compound 36]
% inhibition of PTPα at 100 μM (PTPα): 0% | % inhibition of PTP1C at 100 μM (PTP-1C): 42% | % inhibition of PTP1B at 1 μM (PTP-1B): 52%

O=C(O)/C=C/c1ccc(C(OC(=O)CCC2CCCC2)C(=O)NCCC(=O)O)cc1 (racemic) [Compound 49]
% inhibition of PTPα at 100 μM (PTPα): 0% | % inhibition of PTP1C at 100 μM (PTP-1C): 35% | % inhibition of PTP1B at 1 μM (PTP-1B): 37%

O=C(O)/C=C/c1ccc(C(OC(=O)/C=C/c2ccc(F)cc2)C(=O)NCCCCCC(=O)O)cc1 (racemic) [Compound 46]
% inhibition of PTPα at 100 μM (PTPα): 73% | % inhibition of PTP1C at 100 μM (PTP-1C): 61% | % inhibition of PTP1B at 1 μM (PTP-1B): 75%

CCCC(CCC)C(=O)OC(C(=O)NCCC(=O)O)c1ccc(/C=C/C(=O)O)cc1 (racemic) [Compound 47]
% inhibition of PTPα at 100 μM (PTPα): 48% | % inhibition of PTP1C at 100 μM (PTP-1C): 63% | % inhibition of PTP1B at 1 μM (PTP-1B): 68%

O=C(O)/C=C/c1ccc(C(OC(=O)/C=C/c2ccc(F)cc2)C(=O)NCCC(=O)O)cc1 (racemic) [Compound 45]
% inhibition of PTPα at 100 μM (PTPα): 85% | % inhibition of PTP1C at 100 μM (PTP-1C): 84% | % inhibition of PTP1B at 1 μM (PTP-1B): 85%

CCCCCCC(OC(=O)c1ccc(/C=C/C(=O)O)cc1)C(=O)NCCC(=O)O (racemic) [Compound 38]
% inhibition of PTPα at 100 μM (PTPα): 71% | % inhibition of PTP1C at 100 μM (PTP-1C): 63% | % inhibition of PTP1B at 1 μM (PTP-1B): 93%

COc1ccc(C(=O)OC(C(=O)NCCCCCC(=O)O)c2ccc(/C=C/C(=O)O)cc2)cc1 (racemic) [Compound 43]
% inhibition of PTPα at 100 μM (PTPα): 82% | % inhibition of PTP1C at 100 μM (PTP-1C): 79% | % inhibition of PTP1B at 1 μM (PTP-1B): 76%

CCCCCCC(OC(=O)c1ccc(/C=C/C(=O)O)cc1)C(=O)NCCCCCC(=O)O (racemic) [Compound 39]
% inhibition of PTPα at 100 μM (PTPα): 47% | % inhibition of PTP1C at 100 μM (PTP-1C): 53% | % inhibition of PTP1B at 1 μM (PTP-1B): 82%
